Test results from patent US12534477B2, “Compound having KHK inhibitory effect” (HANGZHOU ZHONGMEIHUADONG PHARMACEUTICAL CO., LTD., priority 2019, dated 2026).
Read-outs that look alike come from different tables or passages of the source.

Tests used:
[1] = molecular target: CYP2C19 (Homo sapiens (Human), UniProt P33261); experiment: Inhibitory activity on human liver microsomal cytochrome P450 isozymes; type: in vitro ADME; settings: human liver microsomes
Method: (§1) The inhibitory effect of test compounds on the activity of human hepatic microsomal cytochrome P450 isozymes (CYP1A2, CYP2C9, CYP2C19, CYP2D6 and CYP3A4) was determined.
(§2) First, the test compound (10 mM) was diluted in gradient to prepare working solutions (100×final concentration) with working solution concentrations: 5, 1.5, 0.5, 0.15, 0.05, 0.015, 0.005 mM, respectively, and at the same time, working solutions of each positive inhibitor of P450 isozymes (CYP1A2, CYP2C9, CYP2C19, CYP2D6 and CYP3A4) and its specific substrate mixture were prepared. Human liver microsomes frozen in a −80° C. refrigerator were thawed on ice, and diluted with PB (phosphate buffer) after all the human liver microsomes were dissolved, to prepare a working solution at a certain concentration (0.253 mg/mL). 20 μl substrate mixture was added to the reaction plate (20 μL PB was added to the Blank wells) while 158 μL human liver microsome working solution was added to the reaction plate which was placed on ice for later use. At this time, 2 μL of each concentration of the test compound (N=1) and the specific inhibitor (N=2) were added to the corresponding wells, and the corresponding organic solvents were added to the groups without inhibitors (the test compound or the positive inhibitor) as control samples (1:1 DMSO:MeOH for the test compound control sample, and 1:9 DMSO:MeOH for the positive control sample). After pre-incubation in 37° C. water bath for 10 min, 20 μL coenzyme factor (NADPH) solution was added to the reaction plate, and incubated in 37° C. water bath for 10 min. 400 μL cold acetonitrile solution (200 ng/mL Tolbutamide and Labetalol as the internal standard) was added to stop the reaction. The reaction plate was placed on a shaker and shaken for 10 min. The mixture was centrifuged at 4,000 rpm for 20 min, and 200 μl the supernatant was added to 100 μL water for sample dilution. Finally, the plate was sealed, shaken, mixed well and detected by LC/MS/MS.

[2] = molecular target: CYP2C9 (Homo sapiens (Human), UniProt P11712); experiment: as above; type: in vitro ADME; settings: human liver microsomes
Method: as §1, §2

[3] = molecular target: CYP2D6 (Homo sapiens (Human), UniProt P10635); experiment: as above; type: in vitro ADME; settings: human liver microsomes
Method: as §1, §2

[4] = molecular target: CYP3A4 (Homo sapiens (Human), UniProt P08684); experiment: as above; type: in vitro ADME; settings: human liver microsomes
Method: as §1, §2

[5] = Pharmacokinetic evaluation in SD rats; type: in vivo; settings: rat, plasma
Method: In vivo pharmacokinetics of compounds in SD rats were tested.
Pharmacokinetic profiles in rodents following intravenous and oral administration of the compounds were tested by standard protocols. In the experiment, candidate compounds were formulated as clear solutions or homogeneous suspensions, and were administered to rats by single intravenous injection (IV, 1 mpk) and oral administration (PO, 3 mpk). The vehicle for intravenous injection was a certain proportion of PEG400 in water, and the vehicle for oral administration was a certain proportion of methylcellulose and Tween 80 in water. Whole blood was collected, and plasma was prepared. Drug concentration was analyzed by LC-MS/MS, and pharmacokinetic parameters were calculated by Phoenix WinNonlin software.

[6] = Liver-blood ratio, tissue distribution in rats; type: in vivo, SD rats; settings: SD, rat, 1 mg/kg, PO 1 mpk
Method: Tissue distribution of compounds in SD rats was tested.
In the experiment, candidate compounds were formulated as clear solutions and administered to rats in a single oral dose (PO, 1 mpk). The vehicle for oral administration was a certain proportion of methylcellulose and Tween 80 in water. Whole blood was collected at a certain time and plasma was prepared, and tissues were collected at the corresponding time and prepared into tissue homogenates. Drug concentration was analyzed by LC-MS/MS, and pharmacokinetic parameters were calculated by Phoenix WinNonlin software.

[7] = tested on: fructose metabolism in mice; experiment: Acute fructose feeding experiment in mice; type: in vivo; settings: compound 10 mpk, oral fructose 1 g/kg
Method: The effect of test compounds on the fructose content in mice with high fructose intake was investigated.
All animals were acclimated for one week in an animal house, fed with normal chow and fasted for 16 hours before being given fructose.
1) The experiment began at −0.5 hr. A control group was given a certain volume of vehicle (a certain proportion of methylcellulose and Tween 80 in water), and an experimental group was given a certain dose of a solution of the compound (the administered volume was consistent with the vehicle).
2) 0.5 hour later and before administration of a fructose solution, a blood sample was collected at 0 hr, followed by oral administration of 1 g/kg of an aqueous fructose solution.
3) After the administration of fructose, blood samples were collected from saphenous vein of mice at 0.25, 0.5, 1, 2, 3 and 8 hr, and fructose concentration was analyzed by LC-MS/MS.

[8] = brain, read-out: Brain tissue concentration
[9] = brain/plasma, read-out: Brain-blood ratio
[10] = liver, read-out: Liver tissue concentration
[11] = liver/plasma, read-out: Liver-blood ratio
[12] = plasma, read-out: Plasma concentration

CYP2C19, sequence (P33261 whole entry): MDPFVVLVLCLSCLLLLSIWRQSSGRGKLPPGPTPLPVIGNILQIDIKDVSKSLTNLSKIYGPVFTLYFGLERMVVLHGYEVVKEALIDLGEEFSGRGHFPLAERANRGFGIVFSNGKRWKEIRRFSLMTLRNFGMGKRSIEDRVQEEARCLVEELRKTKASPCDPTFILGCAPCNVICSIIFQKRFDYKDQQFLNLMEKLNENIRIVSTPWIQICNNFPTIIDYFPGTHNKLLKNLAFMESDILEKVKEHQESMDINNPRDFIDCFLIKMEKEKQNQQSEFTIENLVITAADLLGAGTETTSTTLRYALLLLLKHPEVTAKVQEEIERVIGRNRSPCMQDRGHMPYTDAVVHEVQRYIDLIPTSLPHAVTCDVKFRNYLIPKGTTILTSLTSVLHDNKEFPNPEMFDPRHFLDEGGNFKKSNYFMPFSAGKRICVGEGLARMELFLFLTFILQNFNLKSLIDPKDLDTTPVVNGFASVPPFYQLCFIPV
CYP3A4, sequence (P08684 whole entry): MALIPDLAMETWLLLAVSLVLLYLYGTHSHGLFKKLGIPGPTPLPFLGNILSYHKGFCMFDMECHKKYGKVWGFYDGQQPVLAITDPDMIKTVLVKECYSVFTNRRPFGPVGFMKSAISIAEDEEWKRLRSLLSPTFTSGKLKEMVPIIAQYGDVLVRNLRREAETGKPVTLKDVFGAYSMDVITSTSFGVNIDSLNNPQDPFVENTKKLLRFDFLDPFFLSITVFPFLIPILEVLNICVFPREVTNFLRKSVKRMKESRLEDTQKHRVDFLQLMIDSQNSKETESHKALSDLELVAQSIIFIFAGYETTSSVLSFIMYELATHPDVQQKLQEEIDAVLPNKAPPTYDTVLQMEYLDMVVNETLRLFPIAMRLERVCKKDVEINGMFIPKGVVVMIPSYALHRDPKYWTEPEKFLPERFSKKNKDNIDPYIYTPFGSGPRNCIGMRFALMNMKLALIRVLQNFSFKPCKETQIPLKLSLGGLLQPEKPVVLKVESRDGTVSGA
CYP2D6, sequence (P10635 whole entry): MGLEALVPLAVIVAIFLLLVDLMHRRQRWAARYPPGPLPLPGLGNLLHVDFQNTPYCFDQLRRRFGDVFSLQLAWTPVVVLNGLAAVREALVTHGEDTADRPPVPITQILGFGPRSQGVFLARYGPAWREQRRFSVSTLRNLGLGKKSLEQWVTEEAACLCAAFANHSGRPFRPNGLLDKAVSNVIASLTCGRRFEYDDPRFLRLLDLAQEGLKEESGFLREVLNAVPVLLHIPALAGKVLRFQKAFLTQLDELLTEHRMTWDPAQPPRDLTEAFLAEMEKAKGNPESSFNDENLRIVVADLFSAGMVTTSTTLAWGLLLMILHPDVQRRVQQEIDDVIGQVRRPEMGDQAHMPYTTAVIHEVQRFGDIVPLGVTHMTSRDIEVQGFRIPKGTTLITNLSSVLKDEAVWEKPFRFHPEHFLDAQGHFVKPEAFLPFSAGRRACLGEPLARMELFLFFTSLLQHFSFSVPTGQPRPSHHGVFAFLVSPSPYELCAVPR
CYP2C9, sequence (P11712 whole entry): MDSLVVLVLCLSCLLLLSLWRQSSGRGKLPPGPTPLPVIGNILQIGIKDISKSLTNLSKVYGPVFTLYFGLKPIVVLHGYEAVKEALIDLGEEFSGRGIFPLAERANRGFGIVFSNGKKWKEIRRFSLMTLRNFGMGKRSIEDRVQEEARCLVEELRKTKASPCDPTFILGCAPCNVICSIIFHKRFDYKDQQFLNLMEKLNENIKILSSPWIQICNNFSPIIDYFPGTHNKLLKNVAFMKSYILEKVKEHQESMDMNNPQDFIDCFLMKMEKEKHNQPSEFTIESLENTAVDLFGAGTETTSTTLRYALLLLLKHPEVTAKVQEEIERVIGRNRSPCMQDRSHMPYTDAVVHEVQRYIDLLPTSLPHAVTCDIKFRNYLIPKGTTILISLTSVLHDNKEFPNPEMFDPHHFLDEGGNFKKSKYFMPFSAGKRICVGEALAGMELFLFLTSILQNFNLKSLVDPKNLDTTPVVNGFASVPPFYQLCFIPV

- IC50 [1]: > 50 µM
- IC50 [2]: > 50 µM
- IC50 [3]: > 50 µM
- IC50 [4]: > 50 µM
- clearance ([5]; 1 mg/kg, IV 1 mpk, read-out: Clearance rate): 1.21 mL/min/kg
- bioavailability ([5]; 3 mg/kg, IV 1 mpk, PO 3 mpk, read-out: Bioavailability F): 80%
- AUC ([5]; 3 mg/kg, PO 3 mpk, read-out: Integral concentration AUC for PO): 64.5 µM·h
- half-life ([5]; IV 1 mpk and PO 3 mpk study, read-out: Half-life T1/2 (converted)): 2.96 h
- concentration at 1.5 h [6, 8]: 0.105 µM
- concentration at 2 h [6, 8]: 0.148 µM
- concentration at 6 h [6, 8]: 0.071 µM
- Kp at 1.5 h [6, 9]: 0.022
- Kp at 2 h [6, 9]: 0.019
- Kp at 6 h [6, 9]: 0.023
- concentration at 1.5 h [6, 10]: 4.42 µM
- concentration at 2 h [6, 10]: 6.37 µM
- concentration at 6 h [6, 10]: 3.9 µM
- Kp at 1.5 h [6, 11]: 0.943
- Kp at 2 h [6, 11]: 0.821
- Kp at 6 h [6, 11]: 1.22
- concentration at 1.5 h [6, 12]: 4.67 µM
- concentration at 2 h [6, 12]: 7.75 µM
- concentration at 6 h [6, 12]: 3.67 µM
SMILES: C[C@H]1CCN1c1nc(N2C[C@@H]3[C@@H](CC(=O)O)[C@@H]3C2)c2ccsc2n1 [WX004]
- AUC of integral fructose concentration for dosed group [7]: 2194 nM·h
- AUC of integral fructose concentration of dosed group/AUC of Integral fructose concentration of control group [7]: 5.0
